According to US10828317B2, “Method of treating bacterial infections” (priority 2016, dated 2020):
Values joined by “and” are separate entries in the source; they are usually repeats but may differ in a detail not shown here. Equal entries are not always repeated. Where two headings read alike, the source gives them in different places.

Legend:
[1] = Infusion of 1-12 g/sq. m., Leyva et al, 1984; cited from earlier work
A. baumannii EN007 = assay: MIC, WT (EN007 = EN0007); format: cell-based, Acinetobacter baumannii
K. pneumoniae EN0142 = assay: MIC, OXA-48, CTX-M-15; format: cell-based; settings: Klebsiella pneumoniae, EN0142, combination didanosine+trimethoprim+uridine, Table 20
K. oxytoca EN0392 = assay: MIC; format: cell-based; settings: Klebsiella oxytoca
[2] = system: Helicobacter pylori ATTC43504; assay: MIC; format: cell-based; settings: Helicobacter pylori, Table 22A, read-out: MIC
Text: (§1) Inhibition of Heliobacter is important in view of increasing resistance and its association to gastric cancer.

S. flexneri APV00906 = assay: microbe, parasite or virus in culture; format: cell-based; settings: Shigella flexneri, APV00906
Text: as §1

E. coli B EN0458 = assay: MIC; format: cell-based, Escherichia coli B; settings: Escherichia coli, read-out: MIC
S. typhimurium EN0466 = assay: MIC; format: cell-based; settings: Salmonella enterica
K. pneumoniae EN0233 = assay: MIC; format: cell-based; settings: Klebsiella pneumoniae, read-out: MIC
E. coli strain no 2 = assay: MIC vs E. coli LMG 15862, penicillin resistant; settings: Escherichia coli
K. pneumoniae EN0436 = assay: MIC, colistinR; format: cell-based; settings: Klebsiella pneumoniae, read-out: MIC
[3] = system: Helicobacter pylori APV00918; assay: MIC; format: cell-based; settings: Helicobacter pylori, APV00918, combination FdUrd+trimethoprim+uridine, Table 22A
Text: as §1

K. pneumoniae EN010 = assay: MIC, WT; format: cell-based, Klebsiella pneumoniae; settings: Klebsiella pneumoniae, read-out: MIC
K. pneumoniae EN0262 = assay: MIC, ESBL (+), KPC+; format: cell-based
E. coli = assay: Murine peritonitis model; format: in vivo, mice; set-up: score at sampling: scale not given here
E. coli EN0138 = assay: MIC, ESBL (CTX-M-9); format: cell-based; settings: Escherichia coli, EN0138, combination AZT+trimethoprim+uridine, Table 17B; read-out: MIC
K. pneumoniae EN0437 = assay: MIC, colistinR; format: cell-based; settings: Klebsiella pneumoniae, read-out: MIC
K. pneumoniae EN0143 = assay: MIC, ESBL (SHV-12); format: cell-based; settings: Klebsiella pneumoniae, read-out: MIC
[4] = Acinetobacter baumannii, EN007, Combination 1 AZT+trimethoprim+uridine, Table 16, read-out: MIC
[5] = Acinetobacter baumannii, EN007, Combination 2 AZT+trimethoprim+uridine+thymidine, Table 16, read-out: MIC
[6] = Acinetobacter baumannii, EN007, combination AZT+trimethoprim+uridine, Table 6, read-out: MIC
[7] = Acinetobacter baumannii, EN007, combination FdUrd+trimethoprim+uridine, Table 8, read-out: MIC
[8] = Acinetobacter baumannii, EN007, combination didanosine+trimethoprim+uridine, Table 10, read-out: MIC
[9] = combination AZT+trimethoprim+uridine, Table 17B
[10] = combination FdUrd+trimethoprim+uridine, Table 19
[11] = combination didanosine+trimethoprim+uridine, Table 20
[12] = EN0392, Combination 1 AZT+trimethoprim+uridine, Table 16
[13] = EN0392, combination AZT+trimethoprim+uridine, Table 6
[14] = EN0392, combination FdUrd+trimethoprim+uridine, Table 8
[15] = BEN0458, combination FdUrd+trimethoprim+uridine, Table 8
[16] = BEN0458, combination didanosine+trimethoprim+uridine, Table 10
[17] = Combination 1 AZT+trimethoprim+uridine, Table 16
[18] = combination AZT+trimethoprim+uridine, Table 6
[19] = combination FdUrd+trimethoprim+uridine, Table 8
[20] = Trimethoprim 30 mg/kg, per mouse

For `O=c1ccn([C@@H]2O[C@H](CO)[C@@H](O)[C@H]2O)c(=O)[nH]1` [Uridine, uridine], the plasma levels [1] is listed as “up to 500 μg/ml”, the MIC (A. baumannii EN007; [4]) is listed as greater than 400 µg/mL and the MIC (A. baumannii EN007; [5]) is listed as greater than 400 µg/mL. The MIC (A. baumannii EN007; [6]) was greater than 1000 µg/mL, the MIC (A. baumannii EN007; [7]) was greater than 400 µg/mL and the MIC (A. baumannii EN007; [8]) was greater than 400 µg/mL. The MIC (A. baumannii EN007; [9]) was greater than 400 µg/mL, the MIC (A. baumannii EN007; [10]) was greater than 400 µg/mL and the MIC (A. baumannii EN007; [11]) was greater than 400 µg/mL. For the same compound, the MIC (K. pneumoniae EN0142) was greater than 400 µg/mL, the MIC (K. oxytoca EN0392; [12]) was 6.4 µg/mL and the MIC (K. oxytoca EN0392; [13]) was 16 µg/mL. It also gave an MIC (K. oxytoca EN0392; [14]) of 13 µg/mL, an MIC ([2]; ATTC43504, combination AZT+trimethoprim+uridine) of 13 µg/mL and an MIC ([2]; ATTC43504, combination FdUrd+trimethoprim+uridine) of 6 µg/mL. For the same compound, the MIC (S. flexneri APV00906) was greater than 400 µg/mL, the MIC (E. coli B EN0458; [15]) was 3 µg/mL and the MIC (E. coli B EN0458; [16]) was 3 µg/mL. The MIC (S. typhimurium EN0466; [17]) was 6.4 µg/mL, the MIC (S. typhimurium EN0466; [18]) was 16 µg/mL and the MIC (S. typhimurium EN0466; [19]) was 13 µg/mL.
`COc1cc(Cc2cnc(N)nc2N)cc(OC)c1OC` [Trimethoprim, trimethoprim] gave an MIC (K. pneumoniae EN0233; EN0233, combination FdUrd+trimethoprim+uridine, Table 19) of 1 µg/mL, an MIC (K. pneumoniae EN0233; EN0233, combination didanosine+trimethoprim+uridine, Table 20) of 2 µg/mL and an MIC (E. coli strain no 2; NO2, read-out: MIC FdUrd/Trimethoprim (1:2), uridine 10 μg/ml, thymidine 10 μM) greater than 40 µg/mL. It also gave an MIC (E. coli strain no 2; NO2, read-out: MIC FdUrd/Trimethoprim (1:2), uridine 100 μg/ml, thymidine 10 μM) greater than 40 µg/mL, an MIC (K. pneumoniae EN0436; EN0436, combination FdUrd+trimethoprim+uridine, Table 19) of 0.5 µg/mL and an MIC (K. pneumoniae EN0436; EN0436, combination didanosine+trimethoprim+uridine, Table 20) of 0.5 µg/mL. For the same compound, the MIC (A. baumannii EN007; [4]) was greater than 4 µg/mL, the MIC (A. baumannii EN007; [5]) was greater than 4 µg/mL and the MIC (A. baumannii EN007; [6]) was greater than 4 µg/mL. The MIC (A. baumannii EN007; [7]) was greater than 8 µg/mL, the MIC (A. baumannii EN007; [8]) was greater than 8 µg/mL and the MIC (A. baumannii EN007; [9]) was greater than 4 µg/mL. For the same compound, the MIC (A. baumannii EN007; [10]) was greater than 8 µg/mL, the MIC (A. baumannii EN007; [11]) was greater than 8 µg/mL and the MIC (K. pneumoniae EN0142) was greater than 8 µg/mL. It also gave an MIC (K. oxytoca EN0392; [12]) of 0.064 µg/mL, an MIC (K. oxytoca EN0392; EN0392, Combination 2 AZT+trimethoprim+uridine+thymidine, Table 16) of 0.5 µg/mL and an MIC (K. oxytoca EN0392; [13]) of 0.06 µg/mL. For the same compound, the MIC (K. oxytoca EN0392; [14]) was 0.25 µg/mL, the MIC (K. oxytoca EN0392; EN0392, combination didanosine+trimethoprim+uridine, Table 10) was 0.5 µg/mL and the MIC [3] was 0.125 µg/mL. For the same compound, the MIC (K. pneumoniae EN010; EN010, Combination 2 AZT+trimethoprim+uridine+thymidine, Table 16) was 1 µg/mL, the MIC (K. pneumoniae EN010; EN010, combination AZT+trimethoprim+uridine, Table 6) was 0.5 µg/mL and the MIC (K. pneumoniae EN010; EN010, combination FdUrd+trimethoprim+uridine, Table 8) was 1 µg/mL. It also gave an MIC (K. pneumoniae EN010; EN010, combination didanosine+trimethoprim+uridine, Table 10) of 1 µg/mL, an MIC (E. coli B EN0458; [15]) of 0.064 µg/mL and an MIC (E. coli B EN0458; [16]) of 0.064 µg/mL. For the same compound, the MIC (K. pneumoniae EN0262; Klebsiella pneumoniae, EN0262, combination AZT+trimethoprim+uridine, Table 17B and 18, read-out: MIC) was 0.5 µg/mL, the MIC (K. pneumoniae EN0262; Klebsiella pneumoniae, EN0262, combination FdUrd+trimethoprim+uridine, Table 19 and 21, read-out: MIC) was 4 µg/mL and the MIC (K. pneumoniae EN0262; Klebsiella pneumoniae, EN0262, combination didanosine+trimethoprim+uridine, Table 20 and 21, read-out: MIC) was 4 µg/mL. For the same compound, the MIC (K. pneumoniae EN0262; combination AZT+trimethoprim+uridine, Table 17B and 18) was 0.5 µg/mL, the MIC (K. pneumoniae EN0262; combination FdUrd+trimethoprim+uridine, Table 19 and 21) was 4 µg/mL and the MIC (K. pneumoniae EN0262; combination didanosine+trimethoprim+uridine, Table 20 and 21) was 4 µg/mL. For the same compound, the “CFU/ml PF” value (E. coli; [20]) was 9.50E+03 CFU/ml and 1.60E+06 CFU/ml and 3.25E+05 CFU/ml and 4.75E+05 CFU/ml, the “log CFU/ml PF” value (E. coli; [20]) was 3.98 log CFU/ml and 6.20 log CFU/ml and 5.51 log CFU/ml and 5.68 log CFU/ml and the score at sampling (E. coli; [20]) was 1. For the same compound, the “inhibition in mice infected with E. coli (in words)” value (E. coli; murine peritonitis model) was “slight inhibition”, the MIC (E. coli EN0138) was 0.016 µg/mL and the MIC (S. typhimurium EN0466; [17]) was 0.064 µg/mL. It also gave an MIC (S. typhimurium EN0466; Combination 2 AZT+trimethoprim+uridine+thymidine, Table 16) of 0.5 µg/mL, an MIC (S. typhimurium EN0466; [18]) of 0.06 µg/mL and an MIC (S. typhimurium EN0466; [19]) of 0.25 µg/mL. The MIC (S. typhimurium EN0466; combination didanosine+trimethoprim+uridine, Table 10) was 0.5 µg/mL, the MIC (K. pneumoniae EN0437; EN0437, combination AZT+trimethoprim+uridine, Table 17B) was greater than 4 µg/mL and the MIC (K. pneumoniae EN0437; EN0437, combination FdUrd+trimethoprim+uridine, Table 19) was greater than 8 µg/mL. For the same compound, the MIC (K. pneumoniae EN0437; EN0437, combination didanosine+trimethoprim+uridine, Table 20) was greater than 8 µg/mL, the MIC (K. pneumoniae EN0143; EN0143, combination AZT+trimethoprim+uridine, Table 17B) was greater than 4 µg/mL and the MIC (K. pneumoniae EN0143; EN0143, combination FdUrd+trimethoprim+uridine, Table 19) was greater than 8 µg/mL. For the same compound, the MIC (K. pneumoniae EN0143; EN0143, combination didanosine+trimethoprim+uridine, Table 20) was greater than 8 µg/mL.
